In patent US4737510A, “Bioactive metabolites from the caribbean sponge agelas coniferin” (priority 1986, dated 1988):
Like-named read-outs stand apart in the source and are kept apart here.

Experiments:
[1] = system: vesicular stomatitus virus (VSV); assay type: cell-based; settings: 100 μg/disk
[2] = system: vesicular stomatitis virus (VSV); experiment: microbe, parasite or virus in culture; assay type: cell-based; settings: for zone of inhibition at 200 µg/disc: Vesicular stomatitis virus, in Primates
[3] = system: monkey kidney (CV-1) cells; experiment: Cytotoxicity to monkey kidney (CV-1) cells; settings: 200 μg/disk
[4] = system: Escherichia coli; experiment: Disc diffusion antimicrobial assay, Escherichia coli; assay type: cell-based
[5] = Stability of isolated solids; assay type: physicochemical; settings: diacetate salts, amorphous solids
[6] = system: Herpes simplex virus, type I (HSV-1); experiment: microbe, parasite or virus in culture; assay type: cell-based
[7] = system: Bacillus subtilis; experiment: Disc diffusion antimicrobial assay, Bacillus subtilis; assay type: cell-based; settings: Bacillus subtilis, 6.5 mm disc, read-out: diameter of the clear zone of inhibition
[8] = Water solubility (in words); assay type: physicochemical; settings: relative to 1a-6a
[9] = system: E. coli strain BR339; assay type: cell-based
[10] = system: Herpes Simplex Virus type 1 (HSV-1); experiment: Antiviral activity against HSV-1 determined by Dr. R. G. Hughes, Jr.;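 also: grades: +++ strong ++ moderate + light ± questionable - negative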; assay type: cell-based
[11] = system: Monkey Kidney Cells (CV-1); experiment: Cytotoxicity to monkey kidney cells (CV-1) determined by Dr. R. G. Hughes, Jr.; settings: 8 or less essentially indicates noncytotoxicity
[12] = Human alphaherpesvirus 1, in Primates, read-out: antiviral activity, HSV-1, ++ scale
[13] = Human alphaherpesvirus 1, in Primates, read-out: antiviral activity, HSV-1, zone diameter

NC1=NC(=O)C(C2C(CNC(=O)c3ccc[nH]3)C(CNC(=O)c3cc(Br)c[nH]3)C2c2cnc(N)[nH]2)N1 (centres unmarked) [Compound 7a, Debromooxysceptrin Acetate]
VSV activity [1]: ± | activity against VSV ([2]; 200 μg/disk): essentially inactive | zone of inhibition at 200 µg/disc ([2]; read-out: antiviral activity, VSV, ++ scale): < 7 mm | zone of inhibition at 200 µg/disc ([2]; read-out: antiviral activity, VSV, zone diameter): 0 mm | traces of cytotoxicity, zone [3]: ≤ 8 mm | activity against Escherichia coli ([4]; 100 μg/disk): inactive | zone of inhibition at 10 µg/disc ([4]; Escherichia coli, 10 μg/disk, 6.5 mm disc, read-out: diameter of the clear zone of inhibition): 0 mm | zone of inhibition at 50 µg/disc ([4]; Escherichia coli, 50 μg/disk, 6.5 mm disc, read-out: diameter of the clear zone of inhibition): 0 mm | zone of inhibition at 100 µg/disc ([4]; Escherichia coli, 100 μg/disk, 6.5 mm disc, read-out: diameter of the clear zone of inhibition): 0 mm | stability [5]: stable | activity against HSV-1 [6]: essentially inactive | antiviral zone appearance [6]: diffuse zones | zone of inhibition at 20 µg/disc [6, 12]: < 7 mm | zone of inhibition at 50 µg/disc [6, 12]: < 7 mm | zone of inhibition at 100 µg/disc [6, 12]: < 7 mm | zone of inhibition at 200 µg/disc [6, 12]: 8 to 10 mm | zone of inhibition at 20 µg/disc [6, 13]: 0 mm | zone of inhibition at 50 µg/disc [6, 13]: 0 mm | zone of inhibition at 100 µg/disc [6, 13]: 0 mm | zone of inhibition at 10 µg/disc ([7]; 10 μg/disk): 0 mm | zone of inhibition at 50 µg/disc ([7]; 50 μg/disk): 7 mm | zone of inhibition at 100 µg/disc ([7]; 100 μg/disk): 8 mm | water solubility [8]: more water soluble | BIA activity [9]: somewhat less active | BIA activity, numerical color intensity scale 0-10 [9]: 4 | BIA zone appearance [9]: more diffuse zone | HSV-1 activity ([10]; 25 μg/disk): - | HSV-1 activity ([10]; 50 μg/disk): - | HSV-1 activity ([10]; 100 μg/disk): - | cytotoxicity, zone diameter ([11]; 25 μg/disk): 5 mm | cytotoxicity, zone diameter ([11]; 50 μg/disk): 5 mm | cytotoxicity, zone diameter ([11]; 100 μg/disk): 6 mm
